According to article PMC3823594, “Conformational Changes Underlying Pore Dilation in the Cytoplasmic Domain of Mammalian Inward Rectifier K^+ Channels” (PLoS ONE, 2013):
Changes are numbered by the printed parent chain.

Columns and labels:
Assay in all cases: Two-electrode voltage clamp, ACh-dependent (m2R-dependent) K+ current activation
Format in all cases: cell-based
Kir3.2 E236Q = target: T1, Kir3.2 E236Q (Mus musculus, UniProt P48542, E236Q); conditions: Kir3.2 E236Q with porcine m2R in Xenopus oocytes; −120 mV; Hill equation fit
T1 sequence (P48542 19-425 E236Q): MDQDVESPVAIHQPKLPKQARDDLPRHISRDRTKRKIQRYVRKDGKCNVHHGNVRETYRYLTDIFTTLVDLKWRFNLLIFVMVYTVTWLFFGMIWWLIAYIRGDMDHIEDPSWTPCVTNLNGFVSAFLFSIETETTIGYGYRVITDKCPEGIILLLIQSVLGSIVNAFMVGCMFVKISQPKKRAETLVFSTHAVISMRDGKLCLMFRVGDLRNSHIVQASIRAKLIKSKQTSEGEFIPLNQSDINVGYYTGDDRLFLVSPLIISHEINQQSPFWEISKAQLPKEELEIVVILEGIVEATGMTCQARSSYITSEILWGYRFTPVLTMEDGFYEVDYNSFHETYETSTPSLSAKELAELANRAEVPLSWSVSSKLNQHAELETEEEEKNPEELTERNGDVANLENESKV
T1 sequence (P06199 1-466 partner): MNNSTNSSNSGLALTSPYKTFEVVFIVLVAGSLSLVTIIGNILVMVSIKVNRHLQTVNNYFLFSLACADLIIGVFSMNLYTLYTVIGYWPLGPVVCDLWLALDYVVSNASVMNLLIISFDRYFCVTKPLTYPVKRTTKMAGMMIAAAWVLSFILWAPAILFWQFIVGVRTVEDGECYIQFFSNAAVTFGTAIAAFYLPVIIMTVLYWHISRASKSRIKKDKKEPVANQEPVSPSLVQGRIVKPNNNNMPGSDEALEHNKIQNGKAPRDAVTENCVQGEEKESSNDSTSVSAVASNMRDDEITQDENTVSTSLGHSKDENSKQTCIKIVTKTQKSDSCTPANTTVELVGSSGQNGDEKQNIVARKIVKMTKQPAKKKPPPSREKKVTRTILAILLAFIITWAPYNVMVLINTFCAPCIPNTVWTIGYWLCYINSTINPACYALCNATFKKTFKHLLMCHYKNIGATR
Text: (§1) The mouse Kir3.2d isoform was subjected to functional analyses. The amino acid numbers correspond to the longest mouse Kir3.2 isoform. Point mutations were introduced using the QuikChange site-directed mutagenesis kit (Stratagene, La Jolla, CA), and the presence of the mutations was confirmed by direct DNA sequencing. The care of Xenopus laevis was in accordance with the guideline of the Institute of Experimental Animal Sciences, Osaka University. The protocol was approved by the Animal Experiment Committee of Osaka University. The frogs were deeply anesthetized by immersing in 0.2% tricaine methanesulfonate for 20 min at 18°C. A portion of an ovary lobe was surgically removed and incubated with collagenase to remove follicular cells. The oocytes were injected with the cRNAs of Kir3.2 and porcine m2-muscarinic receptor (m2R), and maintained in modified Barth’s solution at 18°C with daily solution changes. Electrophysiological studies were undertaken 48–72 h later at room temperature (20–25°C). Two-electrode voltage-clamp recordings from oocytes were performed using a GeneClamp 500B amplifier (Axon Instruments, Sunnyvale, CA). […] The bath solution contained 40 mM KCl, 50 mM NaCl, 3 mM MgCl2, 0.15 mM niflumic acid, and 5 mM HEPES-KOH (pH 7.4). The currents were recorded in the absence or presence of various concentrations of acetylcholine (ACh). Ba^2+ (3 mM) was added at the end of the recording to estimate the endogenous leak current. The data are expressed as mean values ± standard error of the mean. For the quantitative estimation of ACh-dependent current responses of the wild-type (WT) and mutant channels, the current amplitudes at the end of test pulses at each ACh concentration ([ACh]) were fitted using the following equation:
(§2) I=min+[(max−min)/(1+(EC50/[ACh])^nH)]
(§3) where I is the current amplitude measured at the [ACh], n H is the Hill coefficient, and EC50 is the concentration that induces 50% of the maximal response. […] The values of n H and EC50 were calculated using a non-linear least-squares best fit (SigmaPlot 9; Systat Software). Statistical analyses were performed by one-way ANOVA with post-hoc tests.

Kir3.2 E236D = target: T2, Kir3.2 E236D (Mus musculus, UniProt P48542, E236D); conditions: Kir3.2 E236D with porcine m2R in Xenopus oocytes; −120 mV; Hill equation fit
T2 sequence (P48542 19-425 E236D): T1 sequence (P48542 19-425 E236Q) with Q218D
T2 sequence (P06199 1-466 partner): T1 sequence (P06199 1-466 partner)
Text: as §1, §2, §3

Kir3.2 M313G = target: T3, Kir3.2 M313G (Mus musculus, UniProt P48542, I313G); conditions: Kir3.2 M313G with porcine m2R in Xenopus oocytes; −120 mV; Hill equation fit
T3 sequence (P48542 19-425 I313G): T1 sequence (P48542 19-425 E236Q) with Q218E, I295G
T3 sequence (P06199 1-466 partner): T1 sequence (P06199 1-466 partner)
Text: as §1, §2, §3

`CC(=O)OCC[N+](C)(C)C` [ACh, acetylcholine] gave a Hill coefficient (Kir3.2 E236Q) of 0.75 ± 0.02, a Hill coefficient (Kir3.2 E236D) of 0.74 ± 0.07 and a Hill coefficient (Kir3.2 M313G) of 0.98 ± 0.07.
